Experimental data taken from publication PMC6030159 (Scientific Reports, 2018).
“Also recorded” adds a separate entry of the source.

Tests used:
[1] = target: T1, MYC bHLHZip (Homo sapiens, UniProt P01106); test: MST direct binding to MYC
T1 construct: 6xHis (N); made in house; host or cells: E. coli BL21 (DE3), pET28a; purified in denaturing conditions
Procedure: To determine whether MYCMI-6 binds directly to MYC (or MAX), MST and SPR were applied. The bHLHZip domains of MYC or MAX, respectively (Suppl. Fig. S1C), were titrated and mixed with 3 μM of MYCMI-6.
(§1) MST was carried out on a Monolith NT.115 with blue/green filters, kindly provided by Luca Jovine, Karolinska Institutet Huddinge, according to manufacturer’s protocol (NanoTemper). MYCbHLHZip, MAXbHLHZip, BSA and BCL-XL recombinant proteins and compounds were diluted and titrated in PBS supplemented with 0.05% Triton-X-114 or 0.05% Tween-20. Titration of molecules was carried out in 16 PCR tubes into which a fixed concentration of fluorescent molecule was added. The mixture was applied to capillaries (standard treated, NanoTemper), and scanned in the Monolith NT.115 to measure initial fluorescence of molecule. MST was induced and fluorescence was measured during 40 seconds. Double measurements were carried out (MST power of 20% and 40%, or 40% and 60%) for each sample. Delta fluorescence or relative fluorescence of fluorescent molecule normalized to control vehicle was plotted against titrated molecule concentration. The protein labeling kit GREEN-NHS (NanoTemper) was used to label primary amines of proteins according to manufacture’s protocol.

[2] = system: T2, BCL-XL; test: MST binding to BCL-XL; conditions: 3 µM MYCMI-6, BCL-XL titrated up to 10 μM
T2 construct: purchased Abcam
Procedure: as §1, with “manufacturer's” for “manufacturer’s”, “MYCbHLHZip, MAXbHLHZip, BSA and BCL-XL recombinant proteins and compounds were diluted and titrated in PBS supplemented with 0.05% Triton-X-114 or 0.05% Tween-20.” left out, “manufacture's” for “manufacture’s”, “protocol. page 5: Supplementary Figure Legends Supplemental Figure S1. Schematic presentations of MYC and MAX protein constructs. […] The cells were reseeded and treated with vehicle or 25 μM of each compound, after which fluorescence was measured 24 hours post-treatment and the YFP/CFP ratio calculated and normalized to DMSO-treated cells. […] (12.5 μM) and analyzed as described in C). […]” for “protocol.”

[3] = system: MYC/MYCN target genes; test: RT-qPCR of MYC/MYCN target genes in Kelly cells; type: cell-based; conditions: 2.5 μM, 24 hours
Procedure: These assays were performed essentially as described in[67],[68]. For further information on immunohistochemistry, and on primers and antibodies, see Supplementary Information.

[4] = system: HO15.19 (MYC knockout) Rat1 fibroblasts; test: WST-1 growth assay, HO15.19 (MYC knockout) Rat1 fibroblasts; type: cell-based, rat
Procedure: Cell proliferation assays. Cell growth and viability was estimated in triplicates with WST-1
(Roche) or Resazurin sodium salt (Sigma-Aldrich) assays in medium at 37°C and 5% CO 2 for
2 hours after which absorbance or fluorescence, respectively, was measured with an Omega
Fluostar (BMG Labtech) in a 96 well plate format. […]
0.7% agarose. […]

[5] = system: SK-N-DZ MYCN-amplified neuroblastoma xenograft tumors; test: SK-N-DZ neuroblastoma xenograft tumor model; type: in vivo, mouse; conditions: 20 mg/kg i.p. daily, 1–2 weeks, vs vehicle
Procedure: The last dose was administered 3 hrs before termination. […]
Immunohistochemistry. Apoptosis was visualized at the single-cell level on tumor cryosections using the TUNEL method using the In Situ Cell Death Detection Fluorescein-Roche kit and analyzed by fluorescence microscopy. Briefly, tumor cryosections were fixed in 4% paraformaldyde (PFA) and the assay was performed following the instructions from the manufacturer. Negative controls were run using the reagent without the TdT enzyme. Samples were mounted using Vectashield mounting medium (Vector) and DAPI was used as nuclear counterstaining. Cell proliferation and microvascular density (MVD) were evaluated through Ki67 and CD31staining, respectively, on tumor cryosections and detected by immunofluoresence. Visualization and image acquisition was done in a Zeiss microscope, and for panoramic views by a Vectra imaging system. For quantification, areas with positive TUNEL and Ki67 staining were measured using Image J software. For the analysis of MVD, the number of vessel structures per microscopic field was calculated.

[6] = system: p53; parameters: method as in PMID 19202599; conditions: cited from earlier work
[7] = system: lung tumor; parameters: method as in PMID 23824742; conditions: cited from earlier work

T1 sequence (P01106 367-447 limits assumed): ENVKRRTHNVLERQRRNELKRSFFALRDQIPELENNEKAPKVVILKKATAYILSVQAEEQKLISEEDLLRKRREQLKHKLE

Which results are given for `CCOc1ccc2nc3cc(/N=N/c4ccc(N)nc4N)ccc3c(N)c2c1` [MYCMI-6]?
binding to MYC bHLHZip (MST) ([1]; 3 μM MYCMI-6, changes at 1–15 μM of MYC): binding of MYCMI-6 to MYC; concentration showing relative changes in thermophoresis of labeled MYC (reverse MST) ([1]; labeled MYC approximately 200 nM, MYCMI-6 titrated): above 100 nM; binding to BCL-XL (MST) [2]: did not bind; also recorded: did not observe any binding; expression of MYC/MYCN target genes [3]: significantly inhibited; growth of MYC null (HO15.19) cells [4]: did not significantly affect growth; apoptotic areas in tumors (TUNEL) [5]: dramatic increase; microvascular density (CD31) [5]: significantly reduced; non-proliferative areas (Ki67) [5]: significant increase; tumor histology (H&E) [5]: signs of necrosis and hemorrhage; concentrations causing increased expression of p53 in cells [6]: ≥ 5 µM; lung tumor growth in mouse xenograft model [7]: inhibit lung tumor growth
